Experimental data taken from patent US20220211846A1, “ABT-165 IN COMBINATION WITH FOLINIC ACID, 5-FLUOROURACIL, AND IRINOTECAN FOR THE TREATMENT OF CANCERS” (AbbVie Biotherapeutics Inc., priority 2017, published 2022).
Marks after values point to notes of the source that are not given here.

Key:
[1] = tested on: human VEGF; assay: Binding affinity to VEGF
[2] = molecular target: human DLL4 (Homo sapiens, UniProt Q9NR61); assay: Binding affinity to DLL4
[3] = tested on: human peripheral blood cells (PBC) from normal donors; assay: Cytokine release by human peripheral blood cells; type: cell-based; conditions: within expected range of negative control IgG1 antibodies
[4] = tested on: DLL4-mediated Notch-1 activation; assay: Inhibition of DLL4-mediated Notch-1 activation; type: cell-based
[5] = tested on: HCT-116 human colon xenograft tumors; assay: HCT-116 colon xenograft model; type: in vivo, female SCID mice
Method: The effect of anti-DLL4-VEGF DVD-Igs (ABT-165) in combination with chemotherapy on tumor growth was evaluated on HCT-116 human colon xenograft tumors in female SCID mice. Briefly, 5×10^6 cells were inoculated subcutaneously into the right hind flank. Tumors were allowed to establish for 14 days, at which point tumor volume was determined using electronic caliper measurements using the formula: L×W^2/2. Mice were allocated into treatment groups (n=9 per group) so that each cohort had equivalent mean tumor volume of 192 mm^3 prior to initiation of therapy. Animals were dosed with 5-fluorouracil (5-FU), folinic acid (leucovorin), irinotecan, anti-VEGF mAb (AB014), and/or anti-DLL4-VEGF DVD-Ig (ABT-165) at the dose and schedule in Table 4. An anti-tetanus toxoid mAb (AB095) was used as a non-targeting isotype control. Tumor volume was measured twice a week for the duration of the experiment.

[6] = molecular target: FcRn (Homo sapiens, UniProt P55899); assay: Binding to FcRn; conditions: compared with human IgG1

human VEGF, sequence (P15692 207-320 limits assumed): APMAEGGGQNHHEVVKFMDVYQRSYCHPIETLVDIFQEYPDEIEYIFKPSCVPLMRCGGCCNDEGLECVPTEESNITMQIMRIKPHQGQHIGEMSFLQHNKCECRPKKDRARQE

affinity to VEGF [1]: nanomolar affinities
affinity to DLL4 [2]: nanomolar affinities
Substance: ABT-165: dual-variable domain humanized immunoglobulin with dual specificity for DLL4 and VEGF; light chain SEQ ID No. 15, heavy chain SEQ ID No. 16
ability to stimulate cytokine release [3]: low ability
inhibition of DLL4-mediated Notch-1 activation [4]: potent inhibition
efficacy compared to anti-VEGF monoclonal antibody (alone or each with FOLFIRI) ([5]; colon cancer xenograft model, FIG. 1): superior efficacy
% TGI (percent tumor growth inhibition = 100 − (T/C × 100)) ([5]; day 26 post size match, mean tumor volume vs treatment control group, dose and regimen as in Table 4, n=9 per group): 67* %
binding to FcRn [6]: pH-dependent binding to FcRn within the expected range of human IgG1
